Test results from US20250144051A1, “Colchicine for Treating Connective Tissue Disorders” (Khan Sciences, Inc., priority 2023, published 2025).

Columns and labels:
Assay type in all cases: cell-based, human
TNF-α = experiment: In vitro tendinopathy model, TNF-α in tenocyte supernatant (MSD multiplex)
Protocol: (§1) In Vitro Tendinopathy Model: The below experiment was conducted on an in vitro tendinopathy model. Cells derived from human tendons (tenocytes) can serve as an in vitro model of tendons. See Miller et al., “MicroRNA29a regulates IL-33-mediated tissue remodelling in tendon disease.” Nat Commun 6, 6774 (2015). Cultured tenocytes can be used to investigate the effects of pro-inflammatory cytokines upon the most basic elements of tendon structure. See Ellis et al., “Defining the profile: Characterizing cytokines in tendon injury to improve clinical therapy.” Journal of Immunology and Regenerative Medicine 16, 100059 (2022). When a tendon is injured, it triggers a local inflammatory response that involves immune cell infiltration and the expression of pro-inflammatory mediators. This inflammatory environment can modify tenocyte physiology, causing them to become activated and pro-inflammatory. Exposing the tenocytes to the pro-inflammatory cytokines TNF-α and IL-1β can mimic the effects of tendon injury. See Smith et al., “Tumour necrosis factor alpha, interleukin 1 beta and interferon gamma have detrimental effects on equine tenocytes that cannot be rescued by IL-1RA or mesenchymal stromal cell-derived factors.” Cell Tissue Res 391, 523-544 (2023).
(§2) Cell Culture System. Immortalized, healthy, commercially-sourced human tenocyte cells (donor, patellar tendon) were reconstituted, seeded in T-75 flasks coated with bovine collagen I, and were maintained in Tenocyte Growth Medium supplemented with Tenocyte Growth Supplement, FBS, and penicillin/streptomycin. Culture conditions were maintained at 37° C. in a humidified 5% CO2 atmosphere. Cells were seeded at a density of 100,000 cells/well in commercially-sourced 24-well plates that were pre-coated with rat tail tendon collagen I.
(§3) Treatment Protocol. This study was designed to follow the time-course of collagen production after cytokine exposure to mimic the effects of tendon injury. The time variable was cytokine exposure time (6 hours, 1 day, 3 days, and 5 days). Each of these cytokine exposure time periods was followed by a 24-hour drug treatment period. Inflammatory conditions were induced using a combination of IL-1β (1 nM; 17 ng/ml) and TNF-α (10 ng/ml). Two therapeutic interventions were evaluated. The treatment designated as “treatment A” was colchicine (2 nM). The treatment designated as “treatment B” was colchicine (2 nM) plus pyridoxine (100 μM).
(§4) Experimental Groups. The treatment groups were as follows: (1) exposed to inflammatory cytokines plus treatment A; (2) exposed to inflammatory cytokines plus treatment B; (3) exposed to inflammatory cytokines (negative control, no drug). Further reference control groups were as follows: (A) treatment A without inflammatory cytokine exposure (drug-only control); (B) treatment B without inflammatory cytokine exposure (drug-only control); (C) healthy control (no inflammatory cytokines, no drug treatment).
(§5) Sample Collection Times. Samples were collected at the following timepoints after initiation of cytokine exposure: • 6-hour samples: Collection at 30 hours (6 hr cytokine exposure+24 hr drug treatment) • 1-day samples: Collection at 48 hours (24 hr cytokine exposure+24 hr drug treatment) • 3-day samples: Collection at 96 hours (72 hr cytokine exposure+24 hr drug treatment) • 5-day samples: Collection at 144 hours (120 hr cytokine exposure+24 hr drug treatment, cell culture medium replenished on day-3)
(§6) Assays Used. Collagen I (human) content was measured using enzyme-linked immunosorbent assay (ELISA) in cell culture supernatants. TGF-β1 in cell culture supernatants were measured using the MSD multiplex platform. Other inflammatory cytokines in cell culture supernatants were measured using the MSD multiplex platform.

IFN-γ = experiment: In vitro tendinopathy model, IFN-γ in tenocyte supernatant (MSD multiplex); parameters: IFN-γ, % of negative control / reduction of IFN-γ levels compared to negative control: concentration or dose not given beside the values
Protocol: as §1, §2, §3, §4, §5, §6

IL-6 = experiment: In vitro tendinopathy model, IL-6 in tenocyte supernatant (MSD multiplex)
Protocol: as §1, §2, §3, §4, §5, §6

VEGF = experiment: In vitro tendinopathy model, VEGF in tenocyte supernatant (MSD multiplex); parameters: VEGF, % of negative control / increase of VEGF levels compared to negative control: concentration or dose not given beside the values
Protocol: as §1, §2, §3, §4, §5, §6

[1] = 5 days cytokine exposure + 24 hr drug treatment
[2] = 6 hr cytokine exposure + 24 hr drug treatment
[3] = 1 day cytokine exposure + 24 hr drug treatment
[4] = 3 days cytokine exposure + 24 hr drug treatment

COc1cc2c(c(OC)c1OC)-c1ccc(OC)c(=O)cc1[C@@H](NC(C)=O)CC2 [Treatment A, colchicine]
TNF-α, % of healthy level (TNF-α; [1]): 424.1%
TNF-α, % of negative control (TNF-α; [1]): 108.7%
TNF-α level (TNF-α; 5 days cytokine exposure + 24 hr drug treatment, negative control 824.1 pg/mL): 895.9 pg/mL
TNF-α level (TNF-α; drug alone, without inflammatory cytokines, healthy control 211.3 pg/mL): 1.1 pg/mL
reduction of IFN-γ levels compared to negative control (IFN-γ; 6-hour timepoint): 28.4%
IFN-γ, % of healthy level (IFN-γ; [2]): 154.5%
IFN-γ, % of negative control (IFN-γ; [2]): 71.6%
IFN-γ level (IFN-γ; 6 hr cytokine exposure + 24 hr drug treatment, negative control 17.6 pg/ml): 12.6 pg/mL
IFN-γ, % of healthy level (IFN-γ; [3]): 186.9%
IFN-γ, % of negative control (IFN-γ; [3]): 98.0%
IFN-γ level (IFN-γ; 1 day cytokine exposure + 24 hr drug treatment, negative control 15.6 pg/ml): 15.3 pg/mL
IFN-γ, % of healthy level (IFN-γ; [4]): 112.1%
IFN-γ, % of negative control (IFN-γ; [4]): 72.4%
IFN-γ level (IFN-γ; 3 days cytokine exposure + 24 hr drug treatment, negative control 12.7 pg/mL): 9.2 pg/mL
IFN-γ, % of healthy level (IFN-γ; [1]): 160.7%
IFN-γ, % of negative control (IFN-γ; [1]): 80.7%
IFN-γ level (IFN-γ; 5 days cytokine exposure + 24 hr drug treatment, negative control 16.3 pg/mL): 13.1 pg/mL
IFN-γ level (IFN-γ; drug alone, without inflammatory cytokines, healthy control 8.2 pg/mL): 3.1 pg/mL
IL-6, % of healthy level (IL-6; [2]): 873.4%
IL-6, % of negative control (IL-6; [2]): 185.1%
IL-6 level (IL-6; 6 hr cytokine exposure + 24 hr drug treatment, negative control 1614.8 pg/mL): 2989.5 pg/mL
IL-6, % of healthy level (IL-6; [3]): 617.8%
IL-6, % of negative control (IL-6; [3]): 122.5%
IL-6 level (IL-6; 1 day cytokine exposure + 24 hr drug treatment, negative control 1726.6 pg/mL): 2114.9 pg/mL
IL-6, % of healthy level (IL-6; [4]): 397.3%
IL-6, % of negative control (IL-6; [4]): 127.5%
IL-6 level (IL-6; 3 days cytokine exposure + 24 hr drug treatment, negative control 1067.0 pg/mL): 1360.1 pg/mL
IL-6, % of healthy level (IL-6; [1]): 207.0%
IL-6, % of negative control (IL-6; [1]): 101.7%
IL-6 level (IL-6; 5 days cytokine exposure + 24 hr drug treatment, negative control 696.6 pg/mL): 708.5 pg/mL
IL-6 level (IL-6; drug alone, without inflammatory cytokines, healthy control 342.3 pg/mL): 73.7 pg/mL
VEGF, % of healthy level (VEGF; [2]): 263.2%
VEGF, % of negative control (VEGF; [2]): 157.0%
VEGF level (VEGF; 6 hr cytokine exposure + 24 hr drug treatment, negative control 333.6 pg/mL): 523.8 pg/mL
VEGF, % of healthy level (VEGF; [3]): 401.8%
VEGF, % of negative control (VEGF; [3]): 133.4%
VEGF level (VEGF; 1 day cytokine exposure + 24 hr drug treatment, negative control 599.5 pg/mL): 799.7 pg/mL
VEGF, % of healthy level (VEGF; [4]): 314.0%
VEGF, % of negative control (VEGF; [4]): 112.6%
VEGF level (VEGF; 3 days cytokine exposure + 24 hr drug treatment, negative control 555.0 pg/mL): 624.9 pg/mL
VEGF, % of healthy level (VEGF; [1]): 229.0%
VEGF, % of negative control (VEGF; [1]): 117.9%
VEGF level (VEGF; 5 days cytokine exposure + 24 hr drug treatment, negative control 386.6 pg/mL): 455.8 pg/mL
increase of VEGF levels compared to negative control (VEGF; at 6 hours): 57%
VEGF level (VEGF; drug alone, without inflammatory cytokines, healthy control 199.0 pg/mL): 621.7 pg/mL
